# Data from patent US20180193361A1, “GUT ANTI-INFLAMMATORY AGENTS FOR REGULATION OF HIGH BLOOD GLUCOSE LEVELS” (UNIVERSITY HEALTH NETWORK, priority 2015, published 2018).
# B1: IFNγ: recombinant mouse IFNγ (Biolegend) (protein, UniProt P01580 23-155, looked up)
# Interferon gamma: HGTVIESLESLNNYFNSSGIDVEEKSLFLDIWRNWQKDGDMKILQSQIISFYLRLFEVLKDNQAISNNISVIESHLITTFFSNSKAKKDAFMSIAKFEVNNPQVQRQAFNELIRVVHQLLPESSLRKRKRSRC
# Experiments:
# [1] = test system: gut epithelial barrier; details: models of IBD (Di Paolo et al., 1996; Liu et al., 2009); cited from earlier work
# [2] = tablet; the remaining has local effects in the colon; cited from earlier work
# [3] = test system: MODE-K intestinal cells; assay: ZO-1 expression in MODE-K cells treated with IFNγ; assay type: cell-based, murine; details: recombinant mouse IFNγ 5 or 10 ng/mL, 24 hours
# Protocol: To measure the effect of IFNγ on tight-junction gene expression, we treated MODE-K cells with recombinant mouse IFNγ (Biolegend). We purified bulk dendritic cells and T cells from murine small bowels and spleens using a negative selection DC or T cell isolation kit (Stem Cell Technologies). We plated T cells at 5×10^5 cells/well with plate-bound anti-CD3/CD28 (1 μg/ml, Biolegend). […] We collected supernatants for cytokine measurements after 72 hour incubation. […] After 24 hours, we washed the cells with PBS and co-cultured them (1×10^4 cells/well) with OVA323-339 peptide and OT-II splenic or small bowel T cells (5×10^4 cells/well) for 48 hours. Supernatants were collected at 48 hours for cytokine measurement.
# The murine intestinal epithelial cell line derived from C3H/He mice. […]
# We extracted total RNA from isolated or cultured cells using a RNeasy Mini Kit (Qiagen), and for subcutaneous adipose tissue (SAT) and VAT we used a RNeasy Lipid Extraction kit (Qiagen). […] We assessed expression of adipocyte P2 (aP2), CCAAT/enhancer-binding protein-α (CEBPα), Peroxisome proliferator-activated receptor-γ (PPARγ), and sterol regulatory element-binding protein (SREBP) cDNA. […] We calculated relative fold changes in gene expression normalized to 18s or GAPDH by the ΔΔCT method using the equation 2-ΔΔCT. […]
molecule,measurement,setting,value
O=C(O)CCNC(=O)c1ccc(/N=N/c2ccc(O)c(C(=O)O)c2)cc1 [Balsalazide],intactness of the gut epithelial barrier,[1],beneficial effects
O=C(O)c1cc(/N=N/c2ccc(S(=O)(=O)Nc3ccccn3)cc2)ccc1O [Sulfasalazine],absorbed in small bowel,[2],approximately 20%
B1,ZO-1 tight junction gene expression,[3],reduce
